Assay results: PubChem BioAssay (NCI)
Where “and” joins values, the source holds several entries; their conditions need not be identical. Identical values can stand only once.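 Cultured in 96-well plates, cells were exposed to test compound for 48 hours across five concentrations. GI50 is the concentration that inhibits growth by half. TGI denotes the concentration required for complete inhibition of growth.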

What was measured:
Experiment in all cases: inhibition of tumour cell growth, NCI panel, 48 h
[1] = test system: MDA-MB-435
[2] = test system: EKVX NSCLC
[3] = test system: SF-268 CNS
[4] = test system: UO-31 renal
[5] = test system: MDA-MB-231 breast
[6] = test system: A549 NSCLC
[7] = test system: 786-0 renal
[8] = test system: MDA-N
[9] = test system: HOP-92 NSCLC
[10] = test system: OVCAR-3 ovarian
[11] = test system: KM12 colon

Row | SMILES | TGI [1] [µM] | TGI [2] | TGI [3] [µM] | TGI [4] [µM] | TGI [5] [µM] | TGI [6] [µM] | TGI [7] | TGI [8] [µM] | TGI [9] | TGI [10] | TGI [11] [µM] | GI50 [3] [µM] | GI50 [9]
1 | Cc1c(CCOC=O)c(=O)[nH]c2nncn12 | > 100 | > 100 µM | > 100 | > 100 | > 100 | > 100 | > 100 µM | > 100 | > 100 µM | > 100 µM | > 100 | – | –
2 | C[C@]12CC[C@@H]3c4cc(OCC(F)(F)F)c(O)cc4C(=O)C[C@H]3[C@@H]1CC[C@@H]2O | > 25.4 | > 100 µM | > 100 | > 100 | > 66.4 | > 100 | > 100 µM | 5.69 | > 100 µM | 7.59 µM | > 64.4 | – | –
3 | CCCCCNc1nonc1N | > 100 | > 100 µM | > 100 | > 100 | > 100 | > 100 | > 100 µM | > 100 | > 100 µM | > 100 µM | > 100 | – | –
4 | O=P(Oc1ccccc1)(Oc1ccccc1)Oc1c[nH]c2ccccc12 | 28.3 | 0.907 µM | 24.3 | 19.7 | 31.3 | 31 | 33.1 µM | 24.3 | 7.15 µM | 39.1 µM | > 100 | – | –
5 | Cn1c(=O)cc(NCc2ccc(Cl)cc2)[nH]c1=O | > 100 | > 100 µM | 69.1 | > 100 | > 100 | > 100 | > 100 µM | > 100 | 45 µM | > 100 µM | > 100 | – | –
6 | CC1=C2c3c(C)ccc4ccc(C)c(c34)C2(O)C(C)C1=O (stereo not drawn) | > 100 | > 100 µM | > 100 | > 100 | > 100 | > 100 | > 100 µM | > 100 | > 100 µM | > 100 µM | > 100 | – | –
7 | COc1ccc(-c2csc(=Nc3ccccc3)n2CC(O)c2ccc([N+](=O)[O-])cc2)cc1 (stereo not drawn) | > 100 | > 100 µM | > 100 | > 100 | > 100 | > 100 | > 100 µM | > 100 | > 100 µM | > 100 µM | > 100 | – | –
8 | COc1ccc2nc3ccc(OC)cc3c(S(=O)(=O)Cc3ccc([N+](=O)[O-])cc3)c2c1 | > 100 | > 100 µM | > 100 | > 100 | > 100 | > 100 | > 100 µM | > 100 | > 100 µM | > 100 µM | > 100 | – | –
9 | COC(=O)C(O)P(=O)(OC)OC (stereo not drawn) | > 100 | > 100 µM | > 100 | > 100 | > 100 | > 100 | > 100 µM | > 100 | > 100 µM | > 100 µM | > 100 | – | –
10 | OC12COc3ccccc3C1Oc1ccccc1C2 (stereo not drawn) | > 100 | > 100 µM | > 100 | > 100 | > 100 | > 100 | > 100 µM | > 100 | > 100 µM | > 100 µM | > 100 | – | –
11 | CC(N)C(C)Cc1ccccc1 (stereo not drawn) | > 100 | > 100 µM | > 100 | > 100 | > 100 | > 100 | > 100 µM | > 100 | > 100 µM | > 100 µM | > 100 | – | –
12 | CCCc1c(OC)c(=O)c2c(OC)cc(OC)c3c4c(OC)cc(OC)c5c(=O)c(OC)c(CCC)c(c1c23)c54 | 29.6 | 28 µM | 41.5 | 28.9 | 18.3 | 43.7 | 26.7 µM | 32.9 | 23.4 µM | 31.8 µM | 34.1 | – | –
13 | CC1(C)CC[C@]2(C)CC=C3[C@]4(C)CC[C@H]5C(C)(C)C(=O)CC[C@]5(C)[C@H]4CC[C@@]3(C)[C@H]2C1 | > 100 | > 100 µM | > 100 | > 100 | > 100 | > 100 | > 100 µM | > 100 | > 100 µM | > 100 µM | > 100 | – | –
14 | CCCCCCOc1ccc(C(=O)NOCc2ccccc2)cc1 | > 100 | > 100 µM | > 100 | > 100 | > 100 | > 100 | > 100 µM | > 100 | > 100 µM | > 100 µM | > 100 | – | –
15 | CC(C)NC(=O)CN1CCN(C2=CC(=O)c3c(O)ccc(O)c3C2=O)CC1 | 3.76 | 33.6 µM | 53.1 | 33.2 | > 63.5 | 35.2 | 42.4 µM | 16.3 | 38.3 µM | 6.56 µM | 33.2 | – | –
16 | O=C1C(CN2CCCCC2)CCCC1CN1CCCCC1 (stereo not drawn) | 30.9 | 38 µM and 39.8 µM | > 100 | > 68.4 | 34.7 | > 100 | 22.3 µM and 15 µM | 29.7 | 18.4 µM and 5.93 µM | 32.1 µM and 34 µM | > 100 | > 89.2 | 7.52 µM and 2.89 µM
17 | CC1(C)CC(=O)C2=C(C1)c1c(ccc3ccccc13)NC2c1cn(Cc2ccc(Cl)cc2)c2ccccc12 (stereo not drawn) | > 100 | > 100 µM | > 100 | > 100 | > 100 | > 100 | > 100 µM | > 100 | > 100 µM | > 100 µM | > 100 | – | –
18 | CCOC(=O)CCC(NC(=O)c1ccc(Oc2nc3ccc(C(F)(F)F)cc3nc2-c2ccccc2)cc1)C(=O)OCC (stereo not drawn) | > 100 | 64 µM | 42.1 | > 100 | > 61.1 | > 100 | 32.9 µM | > 100 | 98.4 µM | > 100 µM | > 100 | – | –

Row | SMILES | TGI [1] [µM] | TGI [2] | TGI [3] [µM] | TGI [4] [µM] | TGI [5] [µM] | TGI [6] [µM] | TGI [7] | TGI [8] [µM] | TGI [9] | TGI [10] | TGI [11] [µM] | GI50 [3] [µM] | GI50 [9]
19 | S=C(N/N=C(/c1ccccc1)c1ccccn1)Nc1ccccc1Cl | 8.77 | 9.92 µM | 13.3 | 5.96 | 2.19 | 13 | 13.1 µM | 13.6 | 11 µM | 11.2 µM | 16.2 | – | –
20 | CC(C)(C)c1nc2c(o1)C(=O)c1ccccc1C2=O | 0.327 | 6.51 µM | 10.5 | 6.23 | 1.97 | 8.22 | 5.51 µM | 0.367 | 6.44 µM | 2.03 µM | 6.76 | – | –
21 | CC(C)(C)N(Cc1ccc2c(c1)OCO2)C(=O)/C=C\S(=O)c1ccccc1 (stereo not drawn) | 9.74 | 20.9 µM | 5.78 | 7.93 | 9.75 | 18.4 | 6.07 µM | 12.7 | 8.18 µM | 7.4 µM | 14 | – | –
22 | COc1ccc2nc3cccc([N+](=O)[O-])c3c(NCCO)c2c1 | 0.0186 | 0.0648 µM | 0.111 | 0.0504 | 0.041 | 0.0909 | 0.0649 µM | 0.0234 | 0.0499 µM | 0.0419 µM | 0.149 | – | –
23 | O=C(O)C1CCCN1Cc1cc2ccccc2c2ccccc12 (stereo not drawn) | > 100 | > 100 µM | > 100 | > 100 | > 100 | > 100 | > 100 µM | > 100 | > 100 µM | > 100 µM | > 100 | – | –
24 | CC(=O)C(=[N+]=[N-])C(=O)OC(C)(C)C#N | > 10 | > 10 µM | > 10 | > 10 | > 10 | > 10 | > 10 µM | > 10 | > 10 µM | > 10 µM | > 10 | – | –
25 | CN(C)CCNc1ccc2c(=O)n(CCN(C)C)c(=O)n3c4ccc([N+](=O)[O-])cc4c(=O)c1c23 | 1.83 | 2.83 µM | 3.33 | 4.06 | 2.21 | 2.26 | 2.74 µM | 1.38 | 3.33 µM | 2.27 µM | 4.95 | – | –
26 | O=c1cc(N2CCOCC2)[nH]c(=O)n1-c1cccc(C(F)(F)F)c1 | > 100 | > 100 µM | > 100 | > 100 | 57 | > 100 | > 100 µM | > 100 | > 100 µM | > 100 µM | > 100 | – | –
27 | Clc1ccc(Oc2ccc(N=Cc3ccc(Cl)cc3Cl)cc2Cl)cc1 | 49.7 | > 100 µM | > 100 | > 100 | > 100 | > 100 | 63.5 µM | 33.7 | > 100 µM | > 100 µM | > 100 | – | –
28 | COC(=O)C1(Cc2ccc3c(c2)CCC3)Cc2ccc3c(c2C1O)CCC3 (stereo not drawn) | 27.5 | 32 µM | 69.8 | 22.5 | 29.4 | 37.3 | 28.6 µM | 29.8 | 21.9 µM | 27.7 µM | 38.9 | – | –
29 | CC1=C2C(=O)[C@H]3[C@@H](CC=C4C[C@@H](O)CC[C@@]43C)[C@@H]2CC[C@]12O[C@@H]1C[C@H](C)CN[C@H]1[C@H]2C | > 100 | > 66.7 µM | > 66.7 | > 54.3 | > 100 | > 64.2 | > 57.5 µM | > 100 | 26.6 µM | > 56 µM | > 83.4 | – | –
30 | CN(C)c1ccc(/C=C(\C#N)C(N)=C(C#N)C#N)cc1 | > 100 | > 100 µM | > 100 | > 100 | > 100 | > 100 | > 100 µM | > 100 | > 100 µM | > 100 µM | > 100 | – | –
31 | CC(C)(C)c1ccc(-c2nc3ccc([N+](=O)[O-])cc3c(=O)o2)cc1 | 77 | > 100 µM | > 100 | 93.8 | 66 | > 100 | > 100 µM | > 100 | 55.2 µM | 81.1 µM | 69.9 | – | –
32 | O=C/C(=C(/Br)I)c1ccccc1 | 6.74 | 28.6 µM | 7.97 | 9.32 | 7.44 | 56.2 | 5.38 µM | 6.86 | 4.64 µM | 7.65 µM | 19 | – | –
33 | O=C(/C=C/c1ccc(Cl)cc1)Oc1ccc(/C=C2\CCCCC2=O)cc1 | > 100 | > 100 µM | > 100 | > 100 | > 100 | > 100 | > 100 µM | > 100 | > 100 µM | > 100 µM | > 100 | – | –
34 | N#Cc1c(-c2ccc([N+](=O)[O-])cc2)cc(-c2ccc(Nc3ccnc4cc(C(F)(F)F)ccc34)cc2)nc1N | 33.3 | > 93.3 µM | > 72 | 36.5 | 41.7 | 26.8 | 15.6 µM | 38.3 | 42 µM | 29.3 µM | > 47.9 | – | –
35 | CC1(C)C(=O)C(C)(C)C12SSC1(S2)C(C)(C)C(=O)C1(C)C | > 100 | > 100 µM | > 100 | > 100 | > 100 | > 100 | > 100 µM | > 100 | > 100 µM | > 100 µM | > 100 | – | –
36 | CC1OC(OC2C(O[C@H]3CC[C@@]4(C)[C@@H](CC[C@@H]5[C@@H]4CC[C@]4(C)[C@@H]6[C@H](C[C@@H]54)O[C@]4(CC[C@@H](C)CO4)[C@H]6C)C3)OC(CO)C(OC3OC(CO)C(O)C(OC4OCC(O)C(O)C4O)C3OC3OCC(O)C(O)C3O)C2O)C(O)C(O)C1O (stereo partly drawn) | 2.74 | 2.95 µM | 3.37 | 2.44 | 9.57 | 1.05 | 3.02 µM | 36.3 | 3.11 µM | 3.13 µM | 1.92 | – | –
